Data: ChEMBL document CHEMBL1201862, “PubChem BioAssay data set” (2004)
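Dose response: 5 concentrations. Exposure: 48 h. Format: 96-well plates. Endpoint: linear interpolation; highest concentration if not reached. GI50 is the concentration that inhibits growth by half.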 Calls of active or inactive are those of the source. Rule as the data show it: active = GI50 up to about 1.1 µM and inactive = higher.

Legend:
Assay in all cases: NCI anticancer screen, dose series, 48 h
MDA-MB-435 = test system: MDA-MB-435
SK-MEL-28 = test system: SK-MEL-28
K562 = test system: K562
HCT-15 = test system: HCT-15
NCI/ADR-RES = test system: NCI/ADR-RES
786-0 = test system: 786-0
U-251 = test system: U-251
HOP-92 = test system: HOP-92
MCF7 = test system: MCF7
OVCAR-8 = test system: OVCAR-8
LOX IMVI = test system: LOX IMVI
SK-MEL-2 = test system: SK-MEL-2
A549 = test system: A549
SF-539 = test system: SF-539
HL-60 = test system: HL-60
HCC 2998 = test system: HCC 2998
SW-620 = test system: SW-620
KM12 = test system: KM12
EKVX = test system: EKVX
SR = test system: SR
OVCAR-5 = test system: OVCAR-5
MDA-N = test system: MDA-N
Hs-578T = test system: Hs-578T
MOLT-4 = test system: MOLT-4
M14 = test system: M14
RPMI-8226 = test system: RPMI-8226
ACHN = test system: ACHN
HT-29 = test system: HT-29
SN12C = test system: SN12C
SK-OV-3 = test system: SK-OV-3
NCI-H226 = test system: NCI-H226
OVCAR-3 = test system: OVCAR-3
UACC-257 = test system: UACC-257
CAKI-1 = test system: CAKI-1
UACC-62 = test system: UACC-62
SNB-19 = test system: SNB-19
CCRF-CEM = test system: CCRF-CEM
TK-10 = test system: TK-10
A498 = test system: A498
UO-31 = test system: UO-31
SK-MEL-5 = test system: SK-MEL-5
COLO 205 = test system: COLO 205
NCI-H522 = test system: NCI-H522
MDA-MB-231 = test system: MDA-MB-231
BT-549 = test system: BT-549
HCT-116 = test system: HCT-116
OVCAR-4 = test system: OVCAR-4
SF-295 = test system: SF-295
SF-268 = test system: SF-268
Malme-3M = test system: Malme-3M
NCI-H23 = test system: NCI-H23
T47D = test system: T47D
IGROV-1 = test system: IGROV-1
PC-3 = test system: PC-3
HOP-62 = test system: HOP-62
NCI-H460 = test system: NCI-H460
RXF 393 = test system: RXF 393
SNB-75 = test system: SNB-75
DU-145 = test system: DU-145

Measured: GI50

Cc1c(Br)c(Br)c(C)[s+]1[O-]
12.4 µM: HCT-15
inactive: MDA-MB-435 9.16 µM | SK-MEL-28 17.6 µM | K562 25.6 µM | NCI/ADR-RES 29 µM | 786-0 16.9 µM | U-251 11.6 µM | HOP-92 45.9 µM | MCF7 25 µM | OVCAR-8 21.6 µM | LOX IMVI 11.1 µM | SK-MEL-2 13.3 µM | A549 15.6 µM | SF-539 5.38 µM | HL-60 3.2 µM | HCC 2998 18.4 µM | SW-620 8.89 µM | KM12 13.8 µM | EKVX 15.1 µM | SR 3.28 µM | OVCAR-5 18 µM | MDA-N 12.6 µM | Hs-578T 28.5 µM | MOLT-4 3.48 µM | M14 13.4 µM | RPMI-8226 3.8 µM | ACHN 19 µM | HT-29 15.4 µM | SN12C 11.8 µM | SK-OV-3 23.8 µM | NCI-H226 28.4 µM | OVCAR-3 5.92 µM | UACC-257 12.2 µM | CAKI-1 13.7 µM | UACC-62 20.4 µM | SNB-19 20.7 µM | CCRF-CEM 1.92 µM | TK-10 21.2 µM | A498 27.4 µM | UO-31 13.6 µM | SK-MEL-5 10.4 µM | COLO 205 2.57 µM | NCI-H522 8.02 µM | MDA-MB-231 22.9 µM | BT-549 16.3 µM | HCT-116 6 µM | OVCAR-4 26.2 µM | SF-295 20 µM | SF-268 25.2 µM | Malme-3M 17.3 µM | NCI-H23 25.3 µM | T47D 34.9 µM | IGROV-1 26.7 µM | PC-3 17.5 µM | HOP-62 15.6 µM | NCI-H460 14.6 µM

O=S1(=O)c2ccccc2NC(=S)CC1c1ccccc1 (stereo not given)
> 100 µM: HCT-15
inactive: MDA-MB-435 > 100 µM | RXF 393 > 100 µM | SK-MEL-28 > 100 µM | K562 > 100 µM | NCI/ADR-RES > 100 µM | 786-0 > 100 µM | U-251 > 100 µM | MCF7 > 100 µM | OVCAR-8 72.9 µM | LOX IMVI > 100 µM | A549 > 100 µM | HL-60 > 100 µM | KM12 > 100 µM | EKVX > 100 µM | SR > 100 µM | OVCAR-5 > 100 µM | MDA-N > 100 µM | SNB-75 > 100 µM | Hs-578T > 100 µM | MOLT-4 > 100 µM | M14 > 100 µM | RPMI-8226 > 100 µM | ACHN > 100 µM | HT-29 > 100 µM | SN12C > 100 µM | SK-OV-3 > 100 µM | NCI-H226 > 100 µM | OVCAR-3 > 100 µM | UACC-257 24.8 µM | CAKI-1 > 100 µM | UACC-62 > 100 µM | SNB-19 > 100 µM | CCRF-CEM > 100 µM | TK-10 > 100 µM | UO-31 > 100 µM | SK-MEL-5 > 100 µM | COLO 205 36.6 µM | NCI-H522 > 100 µM | MDA-MB-231 > 100 µM | BT-549 > 100 µM | HCT-116 > 100 µM | OVCAR-4 > 100 µM | SF-295 26.3 µM | SF-268 > 100 µM | Malme-3M > 100 µM | NCI-H23 > 100 µM | T47D > 100 µM | DU-145 > 100 µM | IGROV-1 > 100 µM | PC-3 > 100 µM | HOP-62 > 100 µM | NCI-H460 > 100 µM

Cc1nnc(N)nc1C/C=C/C(C)Sc1ccc(Cl)cc1 (stereo not given)
inactive: MDA-MB-435 7.73 µM | RXF 393 7.28 µM | SK-MEL-28 12.3 µM | K562 9.73 µM | NCI/ADR-RES 9.79 µM | 786-0 8.41 µM | U-251 8.93 µM | HOP-92 11.4 µM | MCF7 5.28 µM | OVCAR-8 16.5 µM | LOX IMVI 4.4 µM | SK-MEL-2 12.8 µM | A549 7 µM | HL-60 3.89 µM | HCC 2998 14.4 µM | SW-620 9.04 µM | KM12 4.7 µM | EKVX 4.61 µM | OVCAR-5 10.9 µM | MDA-N 14.4 µM | SNB-75 6.01 µM | Hs-578T 7.14 µM | MOLT-4 3.7 µM | M14 7.69 µM | RPMI-8226 > 21.7 µM | ACHN 7.46 µM | HT-29 16 µM | SN12C 11.1 µM | SK-OV-3 4.52 µM | NCI-H226 2.04 µM | UACC-257 10.8 µM | CAKI-1 7.94 µM | UACC-62 5.33 µM | SNB-19 5.58 µM | CCRF-CEM 2.33 µM | TK-10 15 µM | A498 6.32 µM | UO-31 3.49 µM | SK-MEL-5 6.08 µM | COLO 205 19.1 µM | NCI-H522 4 µM | MDA-MB-231 20.1 µM | BT-549 5.22 µM | HCT-116 5.74 µM | OVCAR-4 10.1 µM | SF-295 2.77 µM | SF-268 3.78 µM | Malme-3M 13.2 µM | NCI-H23 5.47 µM | T47D 8.07 µM | DU-145 11.9 µM | IGROV-1 3.41 µM | PC-3 4.35 µM | HOP-62 6.47 µM | NCI-H460 7.55 µM
12.8 µM: HCT-15
